# Results reported in patent US10512691B2, “Systems and methods for targeted imaging and ablation of cardiac cells” (THE REGENTS OF THE UNIVERSITY OF MICHIGAN, priority 2012, dated 2019).
# Where two headings read alike, the source gives them in different places. Peptide text beside a SMILES is read from it.
# What was measured:
# [1] = In vivo blood stability of photosensitizer; conditions: action of blood reducing enzymes
# Source text: In vivo testing as described above was repeated with an improved CTP-Ce6-8-arm-PEG platform as described above.
# cardiac tissue [2] = assay: CTP transduction of cardiac tissue after peripheral intravenous injection; format: in vivo; conditions: 15 minutes post-peripheral intravenous injection in mice
# Source text: In some embodiments, nanoparticles comprise cardiac targeting moieties. In some embodiments, targeting moieties target myocytes. In some embodiments, the cardiac targeting moiety is cardiac targeting peptide (CTP) (Zahid et al., PloS one 2010; 5:e12252, herein incorporated by reference in its entirety). This peptide has the sequence […] (SEQ ID NO:1). In some embodiments, variants (e.g., sequence variants) of cardiac targeting peptide that retain the ability to specifically bind to myocytes are utilized. […] Thus, CTP is specific to the heart and cell type specific to myocytes. CTP also works in rat, and sheep and human (Zahid, et. al, supra).
# cardiac tissue [3] = conditions: contemplated, citing Zahid et al.; cited from earlier work
# [4] = known, when injected in blood; cited from earlier work
compound,measurement,setting,value
CN(C)c1ccc2nc3ccc(=[N+](C)C)cc-3sc2c1 [methylene blue],stability in blood in vivo,[1],decreased in vivo
CC(C)C[C@H](NC(=O)[C@H](Cc1c[nH]cn1)NC(=O)[C@H](Cc1c[nH]c2ccccc12)NC(=O)[C@@H]1CCCN1C(=O)[C@H](C)N)C(=O)N[C@@H](CO)C(=O)N[C@@H](CO)C(=O)N[C@@H](CCC(N)=O)C(=O)N[C@@H](Cc1ccc(O)cc1)C(=O)N[C@@H](CO)C(=O)N[C@@H](CCCNC(=N)N)C(=O)N[C@H](C(=O)O)[C@@H](C)O [CTP] (H-APWHLSSQYSRT-OH; N-terminus and C-terminus assumed),transduction of cardiac tissue,cardiac tissue [2],efficiently and specifically transduce cardiac tissue
same,uptake in other organs,cardiac tissue [2],"No other organ showed uptake except kidney glomeruli, limited to the cortex, and rare lung capillaries"
same,time for CTP to reach the heart,cardiac tissue [3],approximately 15 minutes
chlorin e6 [Ce6],stability in blood in vivo,[4],remain stable when injected in blood
